Consider 28 compounds from patent US20230150978A1, “QUINAZOLINONE DERIVATIVES AND USES THEREOF FOR TREATING A CANCER” (ENYO PHARMA, priority 2020, published 2023).

One experiment deals with HMGB1. The experiment can be described thus: HMGB1 release screen, Nano-Glo HiBiT extracellular detection. It is filed as cell-based. Conditions: extracellular luminescence. Here is the method: Construction of pBiT3.1-HMGB1 Plasmid
(§1) HMGB1 derived from pCMV6-AC-GFP plasmid (ref. RG205918, Origene) was amplified by PCR using the following set of primers: Seq ID No 1: forward, 5′-[…]-3′; Seq ID No 2: reverse, 5′-[…]-3′. The PCR fragment was subsequently digested by EcoRI and XhoI (R3101S and R0146S respectively, New England Biolabs) and inserted between the EcoRI and XhoI sites in the plasmid pBiT3.1-C(ref. N237A, Promega). The resulting plasmid (pBiT3.1-HMGB1) was grown in NEB10-beta competent E. coli (ref. C3019I, New England Biolabs) and purified using the NucleoBond Xtra Midi Kit (ref. 740410, Macherey-Nagel).
Construction of HMGB1 Reporter Cell Line
pBiT3.1-HMGB1 was transfected in MDA-MB-231 cells (ref. ATCC HTB-2) using Lipofectamine 2000 reagent (ref. 11668, Invitrogen). Transfected cells were selected for blasticidin resistance (15 μg/ml, ref. Al 113903 Gibco) in medium containing DMEM 1× (ref. 1995065, Gibco) with 1% penicillin and streptomycin, and 10% fetal bovine serum.
Screen for HMGB1-Releasing Drugs
MDA-MB-231 cells stably expressing HMGB1-HiBiT (10^4 cells/well) were seeded into white 96-well plates (ref.3917, Corning) and allowed to recover for 24h. […] Mitoxantrone dihydrochloride (ref. M6545, Sigma-Aldrich) was used as a positive control. Extracellular translocation of HMGB1 was measured using the Nano-Glo HiBiT extracellular detection system (ref. N2422, Promega). Nano-Glo HiBiT Extracellular Reagent was prepared in advance, added to the well and incubated 10 min. Luminescence of the extracellular HMGB1-HiBiT was quantified using the Spark 20M spectrofluorimeter (TECAN)
(HiBiT is a short tag that completes a luciferase, so light tracks the accessible tagged protein.)

Another experiment relates to Calreticulin. The experiment can be described thus: Calreticulin release (ER to plasma membrane translocation) screen, Nano-Glo HiBiT extracellular detection. It is filed as cell-based. Particulars: extracellular luminescence, read-out: CalR EC50. Here is the method: as §1, with “Construction of pBiT3.1-Calreticulin Plasmid Calreticulin” for “HMGB1”, “pCMV6-AC” for “pCMV6-AC-GFP”, “SC320287,” for “RG205918,”, “3:” for “1:”, “4:” for “2:”, “(pBiT3.1-Calreticulin)” for “(pBiT3.1-HMGB1)”
Construction of Calreticulin Reporter Cell Line
pBiT3.1-Calreticulin was transfected in MDA-MB-231 cells (ref. ATCC HTB-2) using Lipofectamine 2000 reagent (ref. 11668, Invitrogen). Transfected cells were selected for blasticidin resistance (15 μg/ml, ref. Al 113903 Gibco) in medium containing DMEM 1× (ref. 1995065, Gibco) with 1% penicillin and streptomycin, and 10% fetal bovine serum.
Screen for Calreticulin-ER to Plasma Membrane Translocating Drugs
MDA-MB-231 cells stably expressing Calreticulin-HiBiT (10^4 cells/well) were seeded into white 96-well plates (ref.3917, Corning) and allowed to recover for 24h. […] Mitoxantrone dihydrochloride (ref. M6545, Sigma-Aldrich) was used as a positive control. Extracellular translocation of Calreticulin was measured using the Nano-Glo HiBiT extracellular detection system (ref. N2422, Promega). Nano-Glo HiBiT Extracellular Reagent was prepared in advance, added to the well and incubated 10 min.
Luminescence of the extracellular Calreticulin-HiBiT was quantified using the Spark 20M spectrofluorimeter (TECAN).

The mark [1] stands for this setting: Homo sapiens, MDA-MB-231, MDA-MB-231 cells stably expressing HMGB1-HiBiT.
Setting [2] is: Homo sapiens, MDA-MB-231, MDA-MB-231 cells stably expressing Calreticulin-HiBiT.

Where two headings read alike, the source gives them in different places.

As a reminder, the EC50 is the concentration at which the effect is half-maximal. Turning to `O=c1[nH]c(CN2CCc3ccccc32)nc2ccc(N3CCCC3)cc12` [Ex. #102, 2-(indolin-1-ylmethyl)-6-pyrrolidin-1-yl-3H-quinazolin-4-one], the figures for the EC50 in the experiment on HMGB1 (setting [1]) and in the experiment with Calreticulin (setting [2]) were 1.37 µM and 0.595 µM, respectively.

Regarding `COc1ccc2nc(CN3CC(CCO)c4ccccc43)[nH]c(=O)c2c1` (centres unmarked) [Ex. #129, 2-[[3-(2-hydroxyethyl)indolin-1-yl]methyl]-6-methoxy-3H-quinazolin-4-one], the EC50 with HMGB1 (setting [1]) was determined as 13.3 µM; in the experiment on Calreticulin (setting [2]), 10.7 µM.

As to `Cc1ccc2c(c1)CN(Cc1nc3ccc(Cl)cc3c(=O)[nH]1)CC2` [Ex. #60, 6-chloro-2-[(7-methyl-3,4-dihydro-1H-isoquinolin-2-yl)methyl]-3H-quinazolin-4-one], the EC50 is 9.36 µM in the experiment on HMGB1 (setting [1]) and 0.87 µM in the experiment with Calreticulin (setting [2]).

For the compound `Cc1ccc2nc(CN3CCc4ccccc43)[nH]c(=O)c2c1` [Ex. #84, 2-(indolin-1-ylmethyl)-6-methyl-3H-quinazolin-4-one], the EC50 turned out to be 2.63 µM in the experiment on HMGB1 (setting [1]) and 0.695 µM with Calreticulin (setting [2]).

`COc1cc2nc(CN3CCc4ccccc43)[nH]c(=O)c2cc1OC` [Ex. #83, 2-(indolin-1-ylmethyl)-6,7-dimethoxy-3H-quinazolin-4-one]: the EC50 in the experiment on HMGB1 (setting [1]) is 1.44 µM; in the experiment on Calreticulin (setting [2]) it was 1.61 µM.

Turning to `O=c1[nH]c(CN2CCc3cc(Br)ccc32)nc2ccc(Cl)cc12` [Ex. #48, 2-[(5-bromoindolin-1-yl)methyl]-6-chloro-3H-quinazolin-4-one], the EC50 with HMGB1 (setting [1]) worked out at 6.06 µM; with Calreticulin (setting [2]), 5.96 µM.

Regarding `O=c1[nH]c(CN2CCc3ccccc32)nc2cc(F)ccc12` [Ex. #138, 7-fluoro-2-(indolin-1-ylmethyl)-3H-quinazolin-4-one], the values for the EC50 in the experiment on HMGB1 (setting [1]) and in the experiment on Calreticulin (setting [2]) were 14.5 µM and 12 µM, respectively.

With `CC1Cc2ccccc2N1Cc1nc2ccc(Cl)cc2c(=O)[nH]1` (centres unmarked) [Ex. #41, 6-chloro-2-[(2-methylindolin-1-yl)methyl]-3H-quinazolin-4-one], the results for the EC50 in the experiment with HMGB1 (setting [1]) and with Calreticulin (setting [2]) were 9.61 µM and 8.01 µM, respectively.

As for `COc1ccc2nc(CN3CC(CCN)c4ccccc43)[nH]c(=O)c2c1` (centres unmarked) [Ex. #131, 2-[1-[(6-methoxy-4-oxo-3H-quinazolin-2-yl)methyl]indolin-3-yl]ethylammonium chloride], the EC50 in the experiment with HMGB1 (setting [1]) was 14.5 µM; with Calreticulin (setting [2]), 12.1 µM.

In the case of `Cc1ccc2c(c1)CCN2Cc1nc2ccc(Cl)cc2c(=O)[nH]1` [Ex. #46, 6-chloro-2-[(5-methylindolin-1-yl)methyl]-3H-quinazolin-4-one], the EC50 in the experiment with HMGB1 (setting [1]) was determined as 5.51 µM; with Calreticulin (setting [2]), 2.71 µM.

On to `COc1ccc2nc(CN3CCc4c(cccc4NS(C)(=O)=O)C3)[nH]c(=O)c2c1` [Ex. #21, N-[2-[(6-methoxy-4-oxo-3H-quinazolin-2-yl)methyl]-3,4-dihydro-1H-isoquinolin-5-yl]methanesulfonamide], for which the EC50 in the experiment with HMGB1 (setting [1]) turned out to be 11.2 µM; in the experiment on Calreticulin (setting [2]), 3.96 µM.

On to `COc1cc2c(=O)[nH]c(CN3CCc4ccccc43)nc2cc1F` [Ex. #76, 7-fluoro-2-(indolin-1-ylmethyl)-6-methoxy-3H-quinazolin-4-one], for which the EC50 with HMGB1 (setting [1]) was determined as 0.594 µM; in the experiment with Calreticulin (setting [2]), 0.292 µM.

Take `COc1ccc2nc(CN3CC(C)(C)c4ccccc43)[nH]c(=O)c2c1` [Ex. #2, 2-[(3,3-dimethylindolin-1-yl)methyl]-6-methoxy-3H-quinazolin-4-one]: the EC50 in the experiment on HMGB1 (setting [1]) came to 0.6 µM; in the experiment with Calreticulin (setting [2]), 0.4 µM.

As for `COc1ccc2nc(CN3Cc4ccccc4C3)[nH]c(=O)c2c1` [Ex. #10, 2-(isoindolin-2-ylmethyl)-6-methoxy-3H-quinazolin-4-one], the EC50 in the experiment on HMGB1 (setting [1]) was 6.86 µM; with Calreticulin (setting [2]) it was 4.46 µM.

Consider `COc1ccc2nc(CN3Cc4ccccc4C(O)C3)[nH]c(=O)c2c1` (centres unmarked) [Ex. #123, 2-[(4-hydroxy-3,4-dihydro-1H-isoquinolin-2-yl)methyl]-6-methoxy-3H-quinazolin-4-one], for which the EC50 in the experiment on HMGB1 (setting [1]) stood at 13.1 µM; with Calreticulin (setting [2]), 3.61 µM.

On to `COc1ccc2c(c1)N(Cc1nc3ccc(Cl)cc3c(=O)[nH]1)CCC2` [Ex. #55, 6-chloro-2-[(7-methoxy-3,4-dihydro-2H-quinolin-1-yl)methyl]-3H-quinazolin-4-one], for which the EC50 with HMGB1 (setting [1]) is 10.8 µM; with Calreticulin (setting [2]), 11.3 µM.

In the case of `COc1ccc2nc(CN3CCc4ccccc43)[nH]c(=O)c2c1` [Ex. #1, 2-(indolin-1-ylmethyl)-6-methoxy-3H-quinazolin-4-one], the EC50 in the experiment with HMGB1 (setting [1]) stood at 2.72 µM; with Calreticulin (setting [2]), 0.231 µM.

As for `COc1ccc2nc(CN3CCc4c(Cl)cccc4C3)[nH]c(=O)c2c1` [Ex. #20, 2-[(5-chloro-3,4-dihydro-1H-isoquinolin-2-yl)methyl]-6-methoxy-3H-quinazolin-4-one], the values for the EC50 in the experiment with HMGB1 (setting [1]) and with Calreticulin (setting [2]) were 10.8 µM and 4.26 µM, respectively.

For the compound `COc1ccc2nc(CN3CCc4c(Br)cccc4C3)[nH]c(=O)c2c1` [Ex. #18, 2-[(5-bromo-3,4-dihydro-1H-isoquinolin-2-yl)methyl]-6-methoxy-3H-quinazolin-4-one], the EC50 with HMGB1 (setting [1]) was 9.36 µM; in the experiment on Calreticulin (setting [2]), 2.06 µM.

`COc1ccc2nc(CN3CC(C)c4ccccc43)[nH]c(=O)c2c1` (single isomer, unassigned) [Ex. #5, 6-methoxy-2-[(3-methylindolin-1-yl)methyl]-3H-quinazolin-4-one]: the EC50 with HMGB1 (MDA-MB-231 cells stably expressing HMGB1-HiBiT) came to 3.46 µM; with Calreticulin (MDA-MB-231 cells stably expressing Calreticulin-HiBiT), 2.31 µM.

Take `COCCOc1ccc2nc(CN3CC(C)(C)c4ccccc43)[nH]c(=O)c2c1` [Ex. #97, 2-[(3,3-dimethylindolin-1-yl)methyl]-6-(2-methoxyethoxy)-3H-quinazolin-4-one]: the concentration giving a half-maximal response (EC50) with HMGB1 (setting [1]) was determined as 7.56 µM; in the experiment on Calreticulin (setting [2]), 7.36 µM.

Turning to `COc1ccc2nc(CN3CCc4cccc(OC)c4C3)[nH]c(=O)c2c1` [Ex. #19, 6-methoxy-2-[(8-methoxy-3,4-dihydro-1H-isoquinolin-2-yl)methyl]-3H-quinazolin-4-one], the EC50 with HMGB1 (setting [1]) turned out to be 10.2 µM; in the experiment with Calreticulin (setting [2]), 7.36 µM.

As for `O=c1[nH]c(CN2CCc3ccccc32)nc2ccc(N3CCC3)cc12` [Ex. #100, 6-(azetidin-1-yl)-2-(indolin-1-ylmethyl)-3H-quinazolin-4-one], the results for the EC50 with HMGB1 (setting [1]) and in the experiment with Calreticulin (setting [2]) were 0.25 µM and 0.23 µM, respectively.

Regarding `COC1CN(c2ccc3nc(CN4CCc5ccccc54)[nH]c(=O)c3c2)C1` [Ex. #101, 2-(indolin-1-ylmethyl)-6-(3-methoxyazetidin-1-yl)-3H-quinazolin-4-one], the figures for the EC50 in the experiment with HMGB1 (setting [1]) and in the experiment with Calreticulin (setting [2]) were 10.2 µM and 10 µM, respectively.

As to `CN1CCCN(Cc2nc3ccc(Cl)cc3c(=O)[nH]2)c2ccccc21` [Ex. #63, 6-chloro-2-[(1-methyl-3,4-dihydro-2H-1,5-benzodiazepin-5-yl)methyl]-3H-quinazolin-4-one], the EC50 in the experiment on HMGB1 (setting [1]) worked out at 4.26 µM; with Calreticulin (setting [2]), 3.86 µM.

With `COc1cccc2c1CCCN2Cc1nc2ccc(Cl)cc2c(=O)[nH]1` [Ex. #52, 6-chloro-2-[(5-methoxy-3,4-dihydro-2H-quinolin-1-yl)methyl]-3H-quinazolin-4-one], the results for the EC50 in the experiment on HMGB1 (setting [1]) and in the experiment on Calreticulin (setting [2]) were 1.36 µM and 1.26 µM, respectively.

Regarding `CC(c1nc2ccc(Cl)cc2c(=O)[nH]1)N1CCc2ccccc21` (centres unmarked) [Ex. #120, 6-chloro-2-(1-indolin-1-ylethyl)-3H-quinazolin-4-one], the EC50 worked out at 7.86 µM with HMGB1 (setting [1]) and 4.61 µM in the experiment on Calreticulin (setting [2]).

Regarding `O=c1[nH]c(CN2CCc3ccccc3C2)nc2ccc(Cl)cc12` [Ex. #59, 6-chloro-2-(3,4-dihydro-1H-isoquinolin-2-ylmethyl)-3H-quinazolin-4-one], the values for the EC50 in the experiment with HMGB1 (setting [1]) and in the experiment on Calreticulin (setting [2]) were 7.51 µM and 4.41 µM, respectively.
